For one data set, the system named is L132 cells. The data set can be described thus: cDNA microarray analysis of gene expression after FKBP-L antisense. In kind it is cell-based. The conditions noted are these: 8 h after exposure, vs lipofectin only. Here is the method:
Total RNA was isolated from L132 cells, 8 h after exposure to FKBP-L antisense (FKBP-L antisense: 5′ ATG GCC AGG CTC CCG CTC 3′) (SEQ ID NO: 40) or lipofectin only as a control. Poly A+mRNA was extracted from total RNA samples using the Qiagen Oligotex kit (Qiagen, UK), according to the manufacturer's instructions. These mRNA samples (800 ng per sample) were sent to Incyte Genomics, USA where a UniGEM 2.0 microarray analysis was conducted.
Incyte's Lifearray chips enable the interrogation of up to 10,000 genes simultaneously, resulting in the comparison of gene expression levels in two different samples. Briefly, a standard reverse transcription reaction was carried out to convert both mRNA samples to cyanine-dye-labelled cDNA. mRNA from L132 cells treated with FKBP-L antisense oligonucleotides after 8 h was used to generate a Cyanine 3 (green) labelled probe and mRNA from L132 cells treated with lipofectin only after 8 hours was used to produce a Cyanine 5 (red) labelled probe. The two fluorescent probe samples were simultaneously applied to a single microarray chip containing numerous cDNA probes immobilised on a solid support in specific locations, where they competitively reacted with the arrayed cDNA molecules. Following incubation, the microarray was rinsed in a series of baths to ensure the removal of any unhybridised sample. The microarray was then captured as an image that was acquired using a scanner for fluorescent signal detection. This scanner generated data on the intensity of each spot by excitation of the fluorochromes on the array. Each element of the chip was scanned for the Cy3 (green) and then the Cy5 (red) fluorescent label to create electronic images for both dye channels. The final array images were analysed using the Incyte GEMTools software package.

Data set [1] deals with HMEC-1. Description: in vitro migration assay (wound closure / wound scrape), recombinant protein or peptides added to medium. In kind it is cell-based, Human. Particulars: wound scrape. As for the experimental part: The in vitro migration assay used in these studies is a modified version of the method described by Ashton et al (1999). HMEC-1 were plated into individual chambers on a glass slide and grown to 90% confluence overnight. The medium was removed and the monolayer wounded. The monolayer was re-supplemented with fresh medium and the required volume of recombinant full length his-tagged FKBP-L protein (SEQ ID NO: 1) was added to give the required final concentration.
The monolayers were incubated for 7 hours after exposure to recombinant FKBP-L protein and then fixed in 4% PBS buffered paraformaldehyde. The extent of “wound” closure was blindly assessed microscopically by an independent investigator and quantified using a calibrated eyepiece graticule (1 mm/100 μm graduation) at 20× magnification (Olympus BX 50). The extent of closure in the FKBP-L treated slides was compared to time matched sham treated controls and the % inhibition of wound closure compared to time matched controls calculated.
The following studies were performed to determine the effect of a full length His-tagged recombinant FKBP-L protein on the wound closure assay measured as a function of time. Again, the in vitro migration assay used in these studies is a modified version of the method described by Ashton et al (1999). HMEC-1 were plated into individual chambers on a glass slide and grown to 90% confluence overnight. The medium was removed and the monolayer wounded. The monolayer was re-supplemented with fresh medium and the required volume of full length his-tagged recombinant FKBP-L (i.e., SEQ ID NO: 1) added to give the required final concentration 750 ngml^−1.
Slides were removed at fixed time points until complete closure of the wound, then fixed in 4% PBS buffered paraformaldehyde. The extent of “wound” closure was blindly assessed microscopically by an independent investigator and quantified using a calibrated eyepiece graticule (1 mm/100 μm graduation) at 20× magnification (Olympus BX 50). The extent of closure in the FKBP-L treated slides was compared to time matched sham treated controls and the % inhibition of wound closure compared to time matched controls calculated.
The in vitro migration assay used in these studies is a modified version of the method described by Ashton et al. (1999) see supra. HMEC-1 were plated into individual chambers on a glass slide and grown to 90% confluence overnight. The medium was removed and the monolayer wounded. The monolayer was re-supplemented with fresh medium and the required volume of the following peptides was added to achieve a dose range from 10^−14-10^−6 M.
The monolayers were incubated for 7 h and then fixed in 4% PBS buffered paraformaldehyde. The extent of “wound” closure was blindly assessed microscopically by an independent investigator and quantified using a calibrated eyepiece graticule (1 mm/100 μm graduation) at 20× magnification (Olympus BX 50). The extent of closure in the FKBP-L treated slides was compared to time matched sham treated controls and the % inhibition of wound closure compared to time matched controls calculated.
The in vitro migration assay used in these studies is a modified version of the method described by Ashton et al. (1999) see supra. HMEC-1 were plated into individual chambers on a glass slide and grown to 90% confluence overnight. The medium was removed and the monolayers wounded. The monolayer was re-supplemented with fresh medium and the required volume of each peptide (i.e., peptides 1-17, SEQ ID NOS: 12-28; Table 4 below) was added to give the required final concentration (10^−14-10^−6 M).
The monolayers were incubated for 24 h and then fixed in 4% PBS buffered paraformaldehyde. The extent of “wound” closure was blindly assessed microscopically by an independent investigator and quantified using a calibrated eyepiece graticule (1 mm/100 μm graduation) at 20× magnification (Olympus BX 50). […]

The test system of data set [2] is HMEC-1. Type of data set: cell-based, Human. Particulars: 18 h. Here is the method:
(§1) The in vitro tubule formation assay used in these studies is a modified version of the method described by Ashton et al (1999). In brief, assays were conducted using BD BioCoat™ Matrigel™ Matrix Thin Layer 24-well Multiwell Plates (BD Discovery Labware, Oxford, UK). The Matrigel™ was rehydrated with 500 μl MCDB-131 serum free medium and incubated at 37° C. for 30 minutes. Excess medium was removed and HMEC-1 were seeded at a density of 1×10^5 and the plates incubated at 37° C. under 5% CO2/95% air for 1 hour.
Increasing concentrations of the recombinant FKBP-L protein (SEQ ID NO: 1) were added to each individual well in triplicate (250-1000 ngml^−1) and the plate was incubated for a further 18 hours. The degree of tubule formation between adjacent HMEC-1 cells was assessed in each well in five fields of view, by counting the number of cell to cell contacts between different HMEC-1 cells in the designated area. An independent investigator assessed each well and the FKBP-L treated wells were compared to sham treated controls.
as §1, with “al.” for “al”, “min.” for “minutes.”, “h. Increasing concentrations of FKBP-L 24mer (SEQ ID NO: 10) and 1-57mer (SEQ ID NO: 6) from 10^−14-10^−6 M were used.” for “hour.”
The plate was incubated for a further 18 h. The degree of tubule formation between adjacent HMEC-1 cells was assessed in each well in five fields of view, by counting the number of cell to cell contacts between different HMEC-1 cells in the designated area. An independent investigator assessed each well and the FKBP-L treated wells were compared to sham treated controls.

The next data set deals with rat aortic ring. Type of data set: cell-based, Male Wistar rats. As for the experimental part: Male Wistar rats were euthanised and the thoracic aorta was aseptically removed and sectioned into 1 cm thick rings. The rings were washed ten times in sterile medium to remove any bacteria and embedded into Matrigel on 24 well plates. The wells were supplemented with 2 ml of medium and increasing concentrations of full-length His-tagged recombinant FKBP-L protein (SEQ ID 1). The plate was incubated for 8 days and post incubation the Matrigel and rings were fixed in 4% PBS buffered paraformaldehyde and stored in PBS. The extent of vessel development was blindly assessed microscopically by an independent investigator and quantified using a calibrated eyepiece graticule (1 mm/100 μm graduation) at 20× magnification (Olympus BX 50). The extent of vessel length, maximum vessel length and number of vessels in each field of view was measured and compared to time matched sham controls and the percent (%) inhibition calculated. Male Wistar rats were euthanised and the thoracic aorta was aseptically removed and sectioned into 1 cm thick rings. The rings were washed ten times in sterile medium to remove any bacteria and embedded into Matrigel on 24 well plates. The wells were supplemented with 2 ml of medium and increasing concentrations of FKBP-L 24mer (SEQ ID NO: 10) and FKBP-L 1-57mer (SEQ ID NO: 6) and recombinant FKBP-L (SEQ ID NO:1). The plate was blindly assessed by an independent investigator and quantified using a calibrated eyepiece graticule (1 mm/100 μm graduation) at 20× magnification (Olympus BX 50). The extent of vessel length, maximum vessel length and number of vessels in each field of view was measured and compared to time matched sham controls and the % inhibition calculated. In order to determine whether the FKBP-L 24mer exerted a permanent or static effect on endothelial cell sprouting the rat aortic ring assay was used. Male Wistar rats were euthanised and the thoracic aorta was aseptically removed and sectioned into 1 cm thick rings. The rings were washed ten times in sterile medium to remove any bacteria and embedded into Matrigel on 24 well plates. The wells were supplemented with 2 ml of medium. The plates were incubated for up to 15 days. Each day the Matrigel rings were photographed and returned to their incubator. Two further experiments were carried out: (A) addition of FKBP-L 24mer to the medium after the vessels had grown for seven days; and (B) addition of FKBP-L 24mer to the medium at the initial embedding stage, with subsequent removal after seven days and replacement with fresh medium for a further seven days. The extent of vessel development was quantified using a calibrated eyepiece graticule (1 mm/100 μm graduation) at 20× magnification (Olympus BX 50), and measured electronically using Lucia imaging software. Vessel length was measured and compared to time matched sham controls and the percent (%) inhibition calculated.

A further data set deals with HMEC-1 cells. Description: MTT assay of cell viability/proliferation. The conditions noted are these: 24mer 10^−5-10^−10M, 1-57mer 10^−9M and 10^−10M; 24 hours and 48 hours. On the technique in general: Formazan colour is commonly taken as a measure of viable cells.
Data set [3] deals with DU145 human prostate tumor xenograft. The data set can be described thus: prostate cancer xenograft model, intratumoral injection of plasmid complexes. In kind it is in vivo, severe combined immunodeficient mice. The conditions noted are these: twice weekly. As for the experimental part: Du145 (prostate carcinoma) cells were obtained from Cancer Research UK and cultured in RPMI 1640 medium (Invitrogen) supplemented with 10% foetal calf serum. All cell lines were grown as monolayers, incubated at 37° C. under 5% CO2.
The FKBP-L/pcDNA3.1 plasmid was constructed by excision of the FKBPL cDNA using BamH1 (polynucleotide SEQ ID NO:31) from pUC18 and then directional ligation of FKBP-L into the BamHI restriction site of pcDNA3.1 (Invitrogen) as described in Example 1. The endostatin plasmid (for use as a postive anti-angiogenic control) hEndo XV/pcDNA3.1, was constructed by digesting the pBLAST hENDO XV plasmid (InVivoGen) with Hpa1 (Promega) and EcoV (Invitrogen) to release the hEndo XV insert. The hEndo XV insert was ligated directionally into the ECoRV restriction site of pcDNA3.1 (Invitrogen).
Nineteen (19) male immunocompromised (severe combined immunodeficient) mice were used (Harlan). The mice were aclimatized and caged in groups of 5 or less in a barrier care facility. Du145 (prostate carcinoma) cells were cultured as previously described. Subconfluent cells were harvested and the cell concentration was adjusted to 5×10^7 cells/ml in PBS. The dorsum of each mouse was shaved. […] The tumors were measured before each treatment. Tumor volume was calculated as: 4/3 πr^3 (where r=½ GMP and GMP=^3√{square root over (Length×Breadth×Height)}).

Ends that are not written are not given here.

Description for HMEC-1 cells: An MTT assay was used to measure cell viability/proliferation.
An MTT assay was used to measure cell viability and/or proliferation. Briefly, HMEC-1 cells were seeded (2.5×10^3) in 96 well plates and allowed to attach for 5 h. The cells were treated with FKBP-L 24mer (SEQ ID NO: 10) (10^−5-10^−10M), 1-57mer (SEQ ID NO: 6) (10^−9M and 10^−10M) or medium (control).
Post incubation the cells were exposed to a 5 mgml^−1 solution of 3-(-4,5-dimethylthiazol-2-yl) 2,5 diphenyl tetrazolium (MTT) for 4 h. The cells were aspirated and 200 μl of DMSO added to reduce the salt and induce a colour change.

Consider “5′ ATG GCC AGG CTC CCG CTC 3′ (antisense ATGGCCAGGCTCCCGCTC; listed as DNA, chemistry not given here; listed as Homo sapiens) [FKBP-L anti-sense oligonucleotides]”, for which, in the data set on L132 cells (decrease ↓), the “Fold Increase (↑) or Decrease (↓): Annexin 2” value is listed as “↓ 1.6 Fold”, the “Fold Increase (↑) or Decrease (↓): CYR61” value is on record as “↓ 2.4 Fold”, the “Fold Increase (↑) or Decrease (↓): Tubulin α” value is “↓ 1.5 Fold” and the “Fold Increase (↑) or Decrease (↓): Tubulin β” value is “↓ 1.5 Fold”. Moreover, in the data set on L132 cells (decrease ↓), the “Fold Increase (↑) or Decrease (↓): Tubulin γ” value was “↓ 1.6 Fold”. Further, in the data set with L132 cells (increase ↑), the “Fold Increase (↑) or Decrease (↓): MMP-like 1” value was “↑ 1.5 Fold”, the “Fold Increase (↑) or Decrease (↓): Microtubule associated protein 1B” value is “↑ 1.6 Fold”, the “Fold Increase (↑) or Decrease (↓): PI3K” value is reported as “↑ 3.1 Fold” and the “Fold Increase (↑) or Decrease (↓): ROCK” value was “↑ 1.6 Fold”. In the data set with L132 cells (increase ↑), the “Fold Increase (↑) or Decrease (↓): Rho GTPase activating protein-” value is “↑ 2.0 Fold” and the “Fold Increase (↑) or Decrease (↓): oligophrenin 1” value is reported as “↑ 1.7 Fold”.
Take “METPPVNTIGEKDTSQPQQEWEKNLRENLDSVIQIRQQPRDPPTETLELEVSPDPAS [FKBP-L 1-57mer]”: in the data set with HMEC-1 [1] (7 h), the “potency compared with the full length recombinant protein on a mole/mole basis” value was “increased potency”. In addition, the EC50 (in general, the concentration needed to bring the measured effect to its halfway point) in the data set with HMEC-1 [2] turned out to be 0.7 pM. In the data set with rat aortic ring, the IC50 (commonly the concentration that gives 50% inhibition) amounted to 0.53 nM. Besides, the “effect on proliferation of HMEC-1 cells compared to time-matched controls” value in the data set on HMEC-1 cells is recorded as “neither of the peptides had any significant effect”.
On to “RQQPRDPPTETLELEVSPD-OH (listed as Homo sapiens) [Pep 12]”, for which the “activity relative to the FKBP-L 24mer” value with HMEC-1 [1] (24 h) is on record as “about the same as the FKBP-L 24mer”.
For endostatin, the tumor appearance result in data set [3] is on record as “evidence of a necrotic center”.
